From US20260297060A1, “COMPOUNDS FOR THE DEGRADATION OF MUTANT BRAF” (C4 THERAPEUTICS, INC., priority 2023, published 2026)

Key:
[1] = test system: A375 human melanoma xenografts; assay: Example 9 efficacy study Part I in A375 human melanoma xenografts (tumor volume, T/C, TGI); type: in vivo, BALB/c nude mice; settings: 100 mg/kg, p.o., QD × 14 days
Experimental: For efficacy study Part I, agents were tested in the A375 human melanoma xenografts. Compound 218 and Compound 157 were administered to BALB/c nude mice bearing A375 xenografts from day 0 and dosed twice a day (BID) for 14 days. Compound 218 and Compound 157 were dosed at 10 mg/kg via p.o.. Dabrafenib was administered from day 1 daily (QD) for 14 days and dosed at 100 mg/kg via p.o..
(§1) The A375 tumor cells were maintained in vitro in DMEM medium supplemented with […] and 1% Penicillin-Streptomycin at 37° C. in an atmosphere of 5% CO2 in air. The tumor cells were routinely subcultured twice weekly. The cells growing in an exponential growth phase were harvested and counted for tumor inoculation.
Each mouse was inoculated subcutaneously at the right flank with A375 cells (5×10^6) in 0.2 mL of PBS supplemented with Matrigel (PBS: Matrigel=1:1) for tumor development. Animals were grouped for the treatment when the average tumor volume reached 243 mm^3 for efficacy study part I and 413 mm^3 for the PK and PD study part I on day 15, and 271 mm^3 for efficacy part II and 443 mm^3 for the PK and PD part II on day 18, and 463 mm^3 for the PK and PD study part III on day 21. The test articles administration and the animal numbers in each group are shown in the above experimental tables.
(§2) Prior to the onset of drug treatment, mice were measured for tumor size in two dimensions using a caliper, and the tumor volume (mm^3) was calculated using formula V=0.5 a×b^2 where a and b are the long and short diameters of the tumor in mm, respectively. Mice were randomized into different treatment groups based on the tumor volume.
(§3) The major endpoint was to see if the tumor growth could be delayed or mice could be cured. The tumor size was then used for calculations of T/C value. The T/C value (in percent) is an indication of antitumor effectiveness; T and C are the mean volumes of the treated and control groups, respectively on specified day.
(§4) TGI was calculated for each group using the formula: TGI (%)=[1−(Ti−T0)/(Ci−C0)]×100; Ti is the average tumor volume of a treatment group on a given day, To is the average tumor volume of the treatment group on the day of treatment start, Ci is the average tumor volume of the vehicle control group on the same day with Ti, and C0 is the average tumor volume of the vehicle group on the day of treatment start.

[2] = test system: A375 human melanoma xenografts; assay: Example 8 efficacy study in A375 human melanoma xenografts (tumor volume, T/C, TGI); type: in vivo, BALB/c nude mice; settings: 35 mg/kg, p.o., QD × 21 days
Experimental: For efficacy study, agents were tested in the A375 human melanoma xenografts model. Compound 8, Compound 26, and Compound 38 were administered to BALB/c nude mice bearing A375 xenografts from day 0 and dosed p.o. twice per day (BID). Compound 8 and Compound 26 were dosed at 10 mg/kg for 21 days. Compound 38 was dosed at 10 mg/kg for 10 days. The known BRAF inhibitor encorafenib was used as a positive control. encorafenib was administered from day 1 and dosed p.o. daily (QD) for 21 days and dosed at 35 mg/kg.
as §1
Each mouse was inoculated subcutaneously at the right flank with A375 cells (5×10^6) in 0.2 mL of PBS supplemented with Matrigel (PBS:Matrigel=1:1) for tumor development. Animals were grouped for treatment 16 days after tumor inoculation when the average tumor volume reached 234 mm^3 for efficacy study and 382 mm^3 for PKPD study. The test articles administration and the animal numbers in each group are shown in the above experimental tables.
as §2, §3
as §4, with “T0” for “To”

Row | Structure (SMILES) | Tumor Volume Trace Over Time ([1]; Day 0, Mean ± SEM) [mm^3] | Tumor Volume Trace Over Time ([1]; Day 3, Mean ± SEM) [mm^3] | Tumor Volume Trace Over Time ([1]; Day 7, Mean ± SEM) [mm^3] | Tumor Volume Trace Over Time ([1]; Day 10, Mean ± SEM) [mm^3] | Tumor Volume Trace Over Time ([1]; Day 14, Mean ± SEM) [mm^3] | Tumor Size on PG-D14 ([1]; Mean ± SEM) [mm^3] | TGI (Tumor Growth Inhibition) ([1]; PG-D14) [%] | T/C ([1]; PG-D14, treated/control average tumor volume) [%] | T/C ([2]; PG-D21) [%] | TGI ([2]; PG-D21) [%] | Tumor Size on PG-D21 (Mean ± SEM) ([2]; PG-D21) [mm^3] | Tumor Volume (mean ± SEM) ([2]; day 0) [mm^3] | Tumor Volume (mean ± SEM) ([2]; day 3) [mm^3] | Tumor Volume (mean ± SEM) ([2]; day 6) [mm^3] | Tumor Volume (mean ± SEM) ([2]; day 9) [mm^3] | Tumor Volume (mean ± SEM) ([2]; day 13) [mm^3] | Tumor Volume (mean ± SEM) ([2]; day 17) [mm^3] | Tumor Volume (mean ± SEM) ([2]; day 21) [mm^3]
1 | CC(C)(C)c1nc(-c2cccc(NS(=O)(=O)c3c(F)cccc3F)c2F)c(-c2ccnc(N)n2)s1 [Dabrafenib, dabrafenib, reference compound] | 243 ± 4 | 370 ± 17 | 445 ± 13 | 475 ± 23 | 521 ± 31 | 521 ± 31 | 74.65 | 38.87 |  |  |  |  |  |  |  |  |  | 
2 | COC(=O)N[C@@H](C)CNc1nccc(-c2cn(C(C)C)nc2-c2cc(Cl)cc(NS(C)(=O)=O)c2F)n1 [Encorafenib, encorafenib, reference compound] |  |  |  |  |  |  |  |  | 14.94 | 98.67 | 254 ± 19 | 234 ± 6 | 329 ± 17 | 347 ± 21 | 251 ± 20 | 194 ± 16 | 194 ± 15 | 254 ± 19
